Measurements reported in publication PMC8548355 (Medicinal Chemistry Research, 2021).
In brackets after ≈: the same amount, converted by molar mass.

Columns and labels:
[1] = tested on: S. aureus ATCC 29213; assay: MIC by broth microdilution against S. aureus ATCC 29213; format: cell-based, Staphylococcus aureus; details: for MIC: Staphylococcus aureus, ATCC29213, read-out: MIC against S. aureus ATCC 29213, broth microdilution, 37 °C, 16–18 h
[2] = tested on: K. pneumoniae BAA 1705; assay: MIC by broth microdilution against K. pneumoniae BAA 1705; format: cell-based; details: Klebsiella pneumoniae, BAA1705, read-out: MIC against K. pneumoniae BAA 1705
[3] = tested on: A. baumannii BAA 1605; assay: MIC by broth microdilution against A. baumannii BAA 1605; format: cell-based; details: Acinetobacter baumannii, BAA1605, read-out: MIC against A. baumannii BAA 1605
[4] = tested on: E. coli ATCC 25922; assay: MIC by broth microdilution against E. coli ATCC 25922; format: cell-based; details: Escherichia coli, ATCC25922, read-out: MIC against E. coli ATCC 25922
[5] = tested on: VRSA VRS 4; assay: MIC against clinical VRSA isolate VRS 4; format: cell-based; details: Staphylococcus aureus, read-out: MIC against VRSA VRS 4
[6] = tested on: MRSA NRS 10119; assay: MIC against clinical MRSA isolate NRS 10119; format: cell-based; details: Staphylococcus aureus, MRSA|NRS10119, read-out: MIC against MRSA NRS 10119
[7] = tested on: MRSA NRS 10192; assay: MIC against clinical MRSA isolate NRS 10192; format: cell-based; details: Staphylococcus aureus, MRSA|NRS10192, read-out: MIC against MRSA NRS 10192
[8] = tested on: MRSA NRS 10186; assay: MIC against clinical MRSA isolate NRS 10186; format: cell-based; details: Staphylococcus aureus, MRSA|NRS10186, read-out: MIC against MRSA NRS 10186
[9] = tested on: MRSA NRS 10194; assay: MIC against clinical MRSA isolate NRS 10194; format: cell-based; details: Staphylococcus aureus, MRSA|NRS10194, read-out: MIC against MRSA NRS 10194
[10] = tested on: VRSA VRS 12; assay: MIC against clinical VRSA isolate VRS 12; format: cell-based; details: Staphylococcus aureus, read-out: MIC against VRSA VRS 12
[11] = tested on: MRSA NRS 10191; assay: MIC against clinical MRSA isolate NRS 10191; format: cell-based; details: Staphylococcus aureus, MRSA|NRS10191, read-out: MIC against MRSA NRS 10191
[12] = tested on: clinical MDR S. aureus isolates (MRSA and VRSA); assay: MIC against clinical MDR S. aureus isolates, whole panel; format: cell-based, Staphylococcus aureus; details: nine MRSA and three VRSA strains
[13] = tested on: MRSA NRS 10193; assay: MIC against clinical MRSA isolate NRS 10193; format: cell-based; details: Staphylococcus aureus, MRSA|NRS10193, read-out: MIC against MRSA NRS 10193
[14] = tested on: MRSA NRS 10100; assay: MIC against clinical MRSA isolate NRS 10100; format: cell-based; details: Staphylococcus aureus, MRSA|NRS10100, read-out: MIC against MRSA NRS 10100
[15] = tested on: MRSA NRS 10129; assay: MIC against clinical MRSA isolate NRS 10129; format: cell-based; details: Staphylococcus aureus, MRSA|NRS10129, read-out: MIC against MRSA NRS 10129
[16] = tested on: MRSA NRS 10198; assay: MIC against clinical MRSA isolate NRS 10198; format: cell-based; details: Staphylococcus aureus, MRSA|NRS10198, read-out: MIC against MRSA NRS 10198
[17] = tested on: VRSA VRS 1; assay: MIC against clinical VRSA isolate VRS 1; format: cell-based; details: Staphylococcus aureus, read-out: MIC against VRSA VRS 1
[18] = tested on: S. aureus ATCC 29213; assay: Drug interaction of 22 with FDA-approved drugs, checkerboard method; format: cell-based, Staphylococcus aureus; details: for MIC of drug in the presence of “22” “B”: S. aureus ATCC 29213, checkerboard, in combination with 22; for MIC: Staphylococcus aureus, ATCC29213, 24 h, read-out: MIC (drug alone); for Inference (drug interaction): combination of 22 with the drug, S. aureus ATCC 29213

O=C(Nc1ccc(F)cc1[N+](=O)[O-])c1ccccc1O [Compound 15, N-(4ʹ-fluoro-2ʹ-nitrophenyl)-2-hydroxybenzamide]
MIC [1]: 32 mg/L (≈ 116 µM) | MIC [2]: > 64 mg/L | MIC [3]: > 64 mg/L | MIC [4]: > 64 mg/L

O=C(Nc1ccc(F)cc1[N+](=O)[O-])c1cc(Cl)ccc1O [Compound 16, 5-Chloro-N-(4ʹ-fluoro-2ʹ-nitrophenyl)-2-hydroxybenzamide]
MIC [1]: 3.88 mg/L (≈ 12.5 µM) | MIC against S. aureus ATCC 29213 ([1]; broth microdilution, 37 °C, 16–18 h): 4 mg/L (≈ 12.9 µM) | MIC [2]: > 64 mg/L | MIC [3]: > 64 mg/L | MIC [4]: > 64 mg/L

O=C(Nc1ccc([N+](=O)[O-])cc1F)c1ccccc1O [Compound 17, N-(2ʹ-fluoro-4ʹ-nitrophenyl)-2-hydroxybenzamide]
MIC [1]: 2 mg/L (≈ 7.24 µM)

O=C(Nc1ccc([N+](=O)[O-])cc1F)c1cc(Cl)ccc1O [Compound 18, 5-Chloro-N-(2ʹ-fluoro-4ʹ-nitrophenyl)-2-hydroxybenzamide]
MIC [1]: 1 mg/L (≈ 3.22 µM) | MIC [2]: > 64 mg/L | MIC [3]: > 64 mg/L | MIC [4]: > 64 mg/L

O=C(Nc1ccc(Cl)c(C(F)(F)F)c1)c1ccccc1O [Compound 19, N-(4ʹ-chloro-3ʹ-(trifluoromethyl)phenyl)-2-hydroxybenzamide]
MIC [1]: 1 mg/L (≈ 3.17 µM) | MIC [2]: > 64 mg/L | MIC [3]: > 64 mg/L | MIC [4]: > 64 mg/L

O=C(Nc1ccc(Cl)c(C(F)(F)F)c1)c1cc(Cl)ccc1O [Compound 20, 5-Chloro-N-(4ʹ-chloro-3ʹ-(trifluoromethyl)phenyl)-2-hydroxybenzamide]
MIC [5]: 0.25 mg/L (≈ 0.714 µM) | MIC [1]: 0.25 mg/L (≈ 0.714 µM) | MIC [6]: 0.5 mg/L (≈ 1.43 µM) | MIC [2]: > 64 mg/L | MIC [7]: 0.5 mg/L (≈ 1.43 µM) | MIC [8]: 0.5 mg/L (≈ 1.43 µM) | MIC [3]: > 64 mg/L | MIC [4]: > 64 mg/L | MIC [9]: 0.5 mg/L (≈ 1.43 µM) | MIC [10]: 0.5 mg/L (≈ 1.43 µM) | MIC [11]: 0.5 mg/L (≈ 1.43 µM) | MIC against MRSA and VRSA isolates (range over the panel) [12]: 0.25 to 0.5 mg/L | MIC [13]: 0.5 mg/L (≈ 1.43 µM) | MIC [14]: 0.5 mg/L (≈ 1.43 µM) | MIC [15]: 0.5 mg/L (≈ 1.43 µM) | MIC [16]: 0.5 mg/L (≈ 1.43 µM) | MIC [17]: 0.5 mg/L (≈ 1.43 µM)

O=C(Nc1ccc(Cl)cc1)c1cc(Cl)ccc1O [Compound 24, 5-Chloro-N-(4ʹ-chlorophenyl)-2-hydroxybenzamide]
MIC [5]: 0.5 mg/L (≈ 1.77 µM) | MIC [1]: 0.5 mg/L (≈ 1.77 µM) | MIC [6]: 0.25 mg/L (≈ 0.886 µM) | MIC [2]: > 64 mg/L | MIC [7]: 0.5 mg/L (≈ 1.77 µM) | MIC [8]: 0.5 mg/L (≈ 1.77 µM) | MIC [3]: > 64 mg/L | MIC [4]: > 64 mg/L | MIC [9]: 0.5 mg/L (≈ 1.77 µM) | MIC [10]: 0.5 mg/L (≈ 1.77 µM) | MIC [11]: 0.5 mg/L (≈ 1.77 µM) | MIC against MRSA and VRSA isolates (range over the panel) [12]: 0.25 to 0.5 mg/L | MIC [13]: 0.5 mg/L (≈ 1.77 µM) | MIC [14]: 0.5 mg/L (≈ 1.77 µM) | MIC [15]: 0.5 mg/L (≈ 1.77 µM) | MIC [16]: 0.5 mg/L (≈ 1.77 µM) | MIC [17]: 0.5 mg/L (≈ 1.77 µM)

CCCCCCCCCC(=O)N[C@@H](Cc1c[nH]c2ccccc12)C(=O)N[C@H](CC(N)=O)C(=O)N[C@@H](CC(=O)O)C(=O)N[C@@H]1C(=O)NCC(=O)N[C@@H](CCCN)C(=O)N[C@@H](CC(=O)O)C(=O)N[C@H](C)C(=O)N[C@@H](CC(=O)O)C(=O)NCC(=O)N[C@H](CO)C(=O)N[C@@H]([C@H](C)CC(=O)O)C(=O)N[C@@H](CC(=O)c2ccccc2N)C(=O)O[C@@H]1C [Daptomycin]
MIC of drug in the presence of “22” “B” [18]: 1 mg/L | MIC [18]: 1 mg/L | Inference (drug interaction) [18]: No interaction

CNC(C)C1CCC(N)C(OC2C(N)CC(N)C(OC3OCC(C)(O)C(NC)C3O)C2O)O1 (centres unmarked) [Gentamicin]
MIC of drug in the presence of “22” “B” [18]: 0.25 mg/L | MIC [18]: 0.5 mg/L | Inference (drug interaction) [18]: No interaction

CC(=O)NC[C@H]1CN(c2ccc(N3CCOCC3)c(F)c2)C(=O)O1 [Linezolid]
MIC of drug in the presence of “22” “B” [18]: 0.5 mg/L | MIC [18]: 2 mg/L | Inference (drug interaction) [18]: No interaction

C[C@@H](O)[C@H]1C(=O)N2C(C(=O)O)=C(S[C@@H]3CN[C@H](C(=O)N(C)C)C3)[C@H](C)[C@H]12 [Meropenem, reference compound]
MIC [5]: > 64 mg/L | MIC [6]: > 64 mg/L | MIC [7]: 32 mg/L (≈ 83.4 µM) | MIC [8]: 16 mg/L (≈ 41.7 µM) | MIC [9]: 4 mg/L (≈ 10.4 µM) | MIC [10]: 16 mg/L (≈ 41.7 µM) | MIC [11]: > 64 mg/L | MIC of drug in the presence of “22” “B” [18]: 0.5 mg/L | MIC [18]: 0.5 mg/L | Inference (drug interaction) [18]: No interaction | MIC [13]: > 64 mg/L | MIC [14]: 64 mg/L (≈ 167 µM) | MIC [15]: 16 mg/L (≈ 41.7 µM) | MIC [16]: > 64 mg/L | MIC [17]: > 64 mg/L

COc1cccc(OC)c1C(=O)N[C@@H]1C(=O)N2[C@@H]1SC(C)(C)[C@@H]2C(=O)O [Methicillin, reference compound]
MIC [5]: > 64 mg/L | MIC [6]: > 64 mg/L | MIC [7]: > 64 mg/L | MIC [8]: 64 mg/L (≈ 168 µM) | MIC [9]: 32 mg/L (≈ 84.1 µM) | MIC [10]: > 64 mg/L | MIC [11]: > 64 mg/L | MIC [13]: > 64 mg/L | MIC [14]: > 64 mg/L | MIC [15]: 32 mg/L (≈ 84.1 µM) | MIC [16]: > 64 mg/L | MIC [17]: > 64 mg/L

CN(C)c1ccc(O)c2c1C[C@H]1C[C@H]3[C@H](N(C)C)C(O)=C(C(N)=O)C(=O)[C@@]3(O)C(O)=C1C2=O [Minocycline]
MIC of drug in the presence of “22” “B” [18]: 0.125 mg/L | MIC [18]: 0.125 mg/L | Inference (drug interaction) [18]: No interaction

CO[C@H]1/C=C/O[C@@]2(C)Oc3c(C)c(O)c4c(O)c(c(/C=N/N5CCN(C)CC5)c(O)c4c3C2=O)NC(=O)/C(C)=C\C=C\[C@H](C)[C@H](O)[C@@H](C)[C@@H](O)[C@@H](C)[C@H](OC(C)=O)[C@@H]1C [Rifampicin]
Inference (drug interaction) [18]: No interaction
